Data on 14 compounds can be found in paper PMC6943670, “Investigating the Binding Mode of Reversible LSD1 Inhibitors Derived from Stilbene Derivatives by 3D-QSAR, Molecular Docking, and Molecular Dynamics Simulation” (Molecules, 2019).

pIC50: −log10 of the molar value. Like-named read-outs stand apart in the source and are kept apart here.

In data set [1] the target is T1, LSD1 (Homo sapiens, UniProt O60341). Set-up: method as in PMID 30448189. The following applies: cited from earlier work.
The target in data set [2] is T1, LSD1. Description: LSD1 enzyme inhibition assay (H3K4me2 substrate, Amplex Red/HRP fluorescence).
The target in data set [3] is T1, LSD1. The following applies: cited from earlier work.

The melting point is the temperature of the solid-liquid transition. On to `COc1cc(Br)c(/C=C/c2ccc(C(=O)NO)cc2)cc1OC`, for which the melting point fell in the range of 163 to 164 °C.
Consider `COc1cc(F)c(/C=C/c2ccc(C(=O)NO)cc2)cc1OC`, for which the melting point lay within 159 to 160 °C.
As to `N/C(=N\O)c1cccc(/C=C/c2ccnc(-c3cc(F)ccc3O)c2)c1` [Compound 22], the “binding site by enzyme kinetics studies” value at LSD1 [1] is on record as “FAD region”.
A word on the pIC50: it is −log10 of the IC50, conventionally taken in molar units. In turn, `COc1ccc(/C=C/c2ccc(/C=C/C(=O)NO)cc2)cc1OC` [Compound 24] displayed a melting point of 205 to 206 °C. The compound also had a pIC50 on LSD1 [2] of 5.38.
For `COc1cc(F)c(/C=C/c2ccc(/C=C/C(=O)NO)cc2)cc1OC` [Compound 25] the same measures were 185 to 186 °C and 5.48.
For `COc1cc(/C=C/c2ccc(/C=C/C(=O)NO)cc2)cc(OC)c1` [Compound 26] the same measures were 149 to 150 °C and 5.29.
For `COc1cc(Br)c(/C=C/c2ccc(/C=C/C(=O)NO)cc2)cc1OC` [Compound 27] the same measures were 120 to 121 °C and 5.40.
Turning to `COc1cc(/C=C/c2ccc(C(=O)NO)cc2)cc(OC)c1` [Compound 29], the pIC50 against LSD1 [2] was 6.16.
As to `COc1ccc(/C=C/c2ccc(C(=O)NO)cc2)cc1OC` [Compound 30], the melting point was 197 to 198 °C. Also, the pIC50 against LSD1 [2] was 6.09.
The compound `O=C(NO)c1ccc(/C=C/c2cc(F)cc(F)c2)cc1` [Compound 31] returned a melting point of 266 to 267 °C. Moreover, the negative logarithm of the IC50 (pIC50) on LSD1 [2] is 5.89.
For `O=C(NO)c1ccc(/C=C/c2ccc3c(c2)CCO3)cc1` [Compound 33] the same measures were 193 to 194 °C and 5.71.
As for `O=C(O)c1ccc(CN2CCC(CN[C@@H]3C[C@H]3c3ccccc3)CC2)cc1` [GSK2879552], on LSD1 [3] (inhibition of LSD1), the pIC50 is 7.70.
With `Cc1ccc(-c2ncc(OC[C@@H]3CCNC3)cc2-c2ccc(C#N)cc2)cc1` [GSK-354], the pIC50 at LSD1 [3] (reversible LSD1 inhibitor) was 7.05.
Consider `C#CCN(C)Cc1ccccc1` [pargyline], for which the “inhibitory effect on LSD1” value at LSD1 [3] (MAO inhibitors bonding covalently with FAD) is on record as “no significant inhibitory effect”. For the same compound, at LSD1 [3] (MAO inhibitors), the selectivity entry is “poor selectivity”.
